# Patent US12365709B2, “Immunomodulatory peptide” (INSTITUT NATIONAL UNI[…]-FRANCOIS CHAMPOLLION, priority 2017, dated 2025)
# No end group written: not given here.
# How the values were obtained:
# [1] = tested on: macrophages derived from human monocytes; assay: Production of ROS by macrophages derived from human monocytes in response to C. albicans (luminol chemiluminescence); format: cell-based; details: macrophages treated 24 hours; yeast ratio per macrophage 3:1; vs untreated
# Description: To analyse the production of ROS, the macrophages derived from human monocytes have been treated, or not, with the peptide P17, P17, non-amidated, or with the following P17 fragments, P17(1-5), P17(1-7), P17(1-9), P17(1-11), P17(3-13), P17(5-13), P17(7-13) and P17(9-13); the fragments P17(1-5), P17(1-7), P17(1-9), P17(1-11) not being amidated at the C-terminal […] and the fragments P17(3-13), P17(5-13), P17(7-13) and P17(9-13) being amidated at the C-terminal. Then, the macrophages derived from human monocytes thus treated have been incubated at 37° C. for 24 hours. The production of reactive derivatives of oxygen (ROS) has been measured by chemiluminescence in the presence of 5-amino-2,3-dihydro-1,4-phthalazinedione (luminol) (EnVision; PerkinElmer). The chemiluminescence generation has been continually measured for 1 hour 30 minutes after incubation of cells with luminol (66 μM) in the presence, or not, of C. albicans (yeast ratio per macrophage: 3:1).
# [2] = tested on: macrophages derived from human monocytes; assay: Removal of C. albicans by macrophages derived from human monocytes (CFU); format: cell-based; details: macrophages treated with peptide 24 hours, then C. albicans 0.3 yeasts per macrophage, 4 hours; vs untreated
# Description: The macrophages derived from human monocytes have been treated, or not, with the peptide P17 or fragments of it then incubated at 37° C. for 24 hours. These cells have been incubated for 40 minutes at 37° C. with C. albicans (at a ratio of 0.3 yeasts per macrophage) and the non-bound yeasts are removed by washing. These macrophages are thus incubated at 37° C. for 4 hours. After incubation, the environment has been removed and the cells have been lysed. The units forming colonies (CFU) of C. albicans have been determined on Sabouraud boxes after spreading and culturing for 48 hours at 37° C.
# [3] = tested on: peritoneal murine macrophages; assay: Production of ROS by murine macrophages in response to murine lymphoma T tumour cells (EL4); format: cell-based; details: murine macrophages treated with P17 24 hours
# Description: To analyse the production of ROS, peritoneal murine macrophages have been treated, or not, with the peptide P17 then incubated at 37° C. for 24 hours. The production of reactive derivatives of oxygen (ROS) has been measured by chemiluminescence in the presence of 5-amino-2,3-dihydro-1,4-phthalazinedione (luminol) (EnVision; PerkinElmer). The chemiluminescence generation has been continually measured for 1 hour 30 minutes after incubation of cells with luminol […] in the presence, or not, of EL4 lymphoma T tumour cells.
# C-type lectin receptors = assay: Protein expression of C-type lectin receptors (flow cytometry); format: cell-based, human; details: P17 200 μg/ml, 24 hours
# Description: To analyse the protein level of C-type lectin receptors, the macrophages derived from human monocytes have been treated, or not, with the peptide P17 (200 μg/ml) then incubated at 37° C. for 24 hours. The cells collected have been centrifugated at 1500 rpm for 10 minutes and […] have been suspended in the PBS supplemented with 1% foetal calf serum (FCS). The cells have been marked with antibodies coupled with different fluorochromes directed against the Dectin-1 receptor (mAb; R&D FAB1859C-100, 1/40), DC-SIGN (mAb; BD Biosciences 551 265, 1/20) CD16 (mAb; PNIM 0814, 1/20), CD36 (mAb; BD Biosciences 550 956, 1/40) and the mannose receptor (specific MR (mannose receptor) ligand) conjugated FITC (Sigma A7790, 1 mg/ml 1/100)). The analysis has been carried out by flow cytometry (Becton Dickinson FACScalibur) over a population of 10000 cells.
# [4] = tested on: macrophages derived from human monocytes; assay: Binding and phagocytosis of C. albicans by macrophages derived from human monocytes; format: cell-based; details: macrophages treated 24 hours, GFP yeasts, vs untreated
# Description: To analyse the binding and the phagocytosis of C. albicans, macrophages derived from human monocytes have been treated, or not, with the peptide P17, then incubated at 37° C. for 24 hours. The macrophages derived from human monocytes have been brought together with the yeasts marked GFP (ratio 1/6) then incubated at 4° C. for 20 minutes, in order to evaluate the binding. The phagocytosis has been evaluated after 1 hour of incubation at 37° C. The quantity of C. albicans bound or ingested by macrophages derived from human monocytes has been determined by measuring the fluorescence by using a fluorimeter (PerkinElmer EnVision).
# C. albicans = assay: Experimental gastrointestinal Candida murine model; format: in vivo; details: P17 10 μg per mouse i.p., vs untreated mice
# Description: For in vivo experiments, a gastrointestinal infection with the C. albicans strain 98/26135 has been established by feeding with 50×10^6 of C. albicans per mouse (n=8 per group). No antibiotic or immunosuppressant treatment has been used to facilitate the infection of mucous membranes of the oral cavity and of the gastrointestinal tract. The mice have been treated intraperitoneally (i.p.) with the peptide P17 (10 μg per mouse) or with a saline solution for control groups, 1 day before the injection with C. albicans, 1 day after infection and then every 2 days (5 injections). The body weight of each mouse has been recorded daily. On the 8th day after treatment (7 days after infection), all mice have been euthanised by asphyxiation with CO2.
# The oesophagus, the stomach, the caecum and the liver have been removed aseptically to evaluate the colonisation by C. albicans. The peritoneal macrophages of the mice have been sampled and the ex vivo capacities thereof to remove and to phagocytose Candida albicans have been determined. The production of ROS, IL-(3 and IL-12 by these macrophages in response to Candida albicans have also been evaluated.
# EL4 tumour cells = assay: Number of lymphoma T tumour cells (EL4) in the presence of murine macrophages; format: cell-based; details: co-culture with macrophages polarised by P17; vs untreated macrophages
# Description: Peritoneal murine macrophages have been treated, or not, with the peptide P17 then incubated at 37° C. for 24 hours. These macrophages have been incubated for 40 minutes at 37° C. with luminescent lymphoma T cells (EL4-luc) and unbound cells are removed by washing. These macrophages are thus incubated at 37° C. for 4 hours. After incubation, the number of lymphoma T cells (EL4-luc) is evaluated by chemiluminescence.
# [5] = tested on: macrophages derived from human monocytes; assay: Production of IL-1β, TNFα, IL-10 and IL-12 by macrophages derived from human monocytes in response to C. albicans (ELISA); format: cell-based; details: P17 24 hours then C. albicans 3:1 for 8 hours
# Description: Macrophages derived from human […] have been stimulated with the peptide P17 for 24 hours, then these macrophages activated by the peptide P17 have been stimulated with C. albicans at a yeast per macrophage ratio of 3:1 for 8 hours. The production of IL-1β, TNFα, IL-10 and IL-12 in cell supernatants has been determined by ELISA (OptiElA BD Biosciences).
Substance,production of ROS in response to C. albicans [1],removal of C. albicans by macrophages [2],other results
EKIKAKL [P17(7-13)],Only the fragments P17(3-13) and P17(5-13) conserve the activity,–,–
IKAKL [P17(9-13)],Only the fragments P17(3-13) and P17(5-13) conserve the activity,–,–
ILEKIKAKL [P17(5-13)],conserve the activity,activity close to that of P17,–
KEILEKIKAKL [P17(3-13)],conserve the activity,activity close to that of P17,–
LFKEI (LFKEI-OH) [P17(1-5)],does not induce the production of ROS,"does not induce the production of ROS, nor the removal of Candida albicans",–
LFKEILE (LFKEILE-OH) [P17(1-7)],does not induce the production of ROS,"does not induce the production of ROS, nor the removal of Candida albicans",–
LFKEILEKI (LFKEILEKI-OH) [P17(1-9)],does not induce the production of ROS,"does not induce the production of ROS, nor the removal of Candida albicans",–
LFKEILEKIKA (LFKEILEKIKA-OH) [P17(1-11)],does not induce the production of ROS,"does not induce the production of ROS, nor the removal of Candida albicans",–
LFKEILEKIKAKL [P17] (LFKEILEKIKAKL-NH2),higher production of ROS,considerably increases the capacity of human macrophages to remove in vitro C. albicans,production of ROS in response to EL4 tumour cells [3]: increased production of ROS; expression of C-type lectin receptors on the surface of macrophages (C-type lectin receptors): overexpression of C-type lectin receptors; capacity to recognise (binding) C. albicans ([4]; 4° C. for 20 minutes): greater capacity to recognise; capacity to phagocytose C. albicans ([4]; 1 hour at 37° C.): greater capacity to recognise and to phagocytose C. albicans; loss of body weight (C. albicans; mice with gastrointestinal candidiasis): lesser loss of weight; gastrointestinal colonisation by Candida albicans (C. albicans; mice): significantly lower; number of EL4 tumour cells (EL4 tumour cells): decreases significantly; production of IL-1β [5]: higher production; production of TNFα [5]: higher production
LFKEILEKIKAKL [non-amidated P17] (LFKEILEKIKAKL-OH; listed as Tetramorium bicarinatum),C-terminal amidation of P17 is essential to the pro-inflammatory activity,–,–
